Publication PMC6556873, “Rapid Covalent-Probe Discovery by Electrophile-Fragment Screening” (Journal of the American Chemical Society, 2019)
Where two headings read alike, the source gives them in different places.

Columns and labels:
in vitro [1] = assay: in vitro; parameters: species or system CCD841, HEK293; conditions: human, hb2 cells, read-out: HB-2 Cells Viability (%)
in vitro [2] = assay: in vitro; parameters: species or system HB2, HEK293; conditions: human, ccd841 cells
in vitro [3] = assay: in vitro; parameters: species or system HB2, CCD841; conditions: human, hek293 cells
BSA = target: T1, BSA (Bos taurus, UniProt P02769); parameters: Intact protein LC/MS covalent labelling, fragments in pools of five, 200 uM each, 4 °C; conditions: 24 h, 4 °C, pool of five; 200 µM; covalent
T1 construct: gene ALB
T1 sequence (P02769 whole entry, the tested form may be a part): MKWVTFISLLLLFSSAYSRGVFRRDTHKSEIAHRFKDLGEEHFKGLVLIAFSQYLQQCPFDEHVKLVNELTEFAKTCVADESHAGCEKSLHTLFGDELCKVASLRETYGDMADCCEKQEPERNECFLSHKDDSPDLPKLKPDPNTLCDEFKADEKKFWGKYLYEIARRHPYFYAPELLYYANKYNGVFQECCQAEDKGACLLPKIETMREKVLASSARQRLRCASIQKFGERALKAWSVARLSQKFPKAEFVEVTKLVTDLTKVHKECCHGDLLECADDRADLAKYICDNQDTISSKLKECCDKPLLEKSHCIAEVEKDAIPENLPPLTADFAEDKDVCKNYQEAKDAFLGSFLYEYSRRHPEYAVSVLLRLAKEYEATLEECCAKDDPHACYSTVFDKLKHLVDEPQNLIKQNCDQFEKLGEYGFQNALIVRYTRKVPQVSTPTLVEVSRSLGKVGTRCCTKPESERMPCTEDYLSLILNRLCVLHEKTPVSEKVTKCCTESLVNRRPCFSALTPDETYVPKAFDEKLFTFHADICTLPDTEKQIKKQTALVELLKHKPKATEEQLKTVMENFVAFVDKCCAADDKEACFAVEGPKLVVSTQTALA

NUDT7 = target: T2, NUDT7 (Homo sapiens, UniProt P0C024); parameters: Intact protein LC/MS covalent labelling, fragments in pools of five, 200 uM each, 4 °C; conditions: 24 h, 4 °C, pool of five; 200 µM; covalent
T2 construct: residues 14-235, E. coli, pNIC28-Bsa4, N-terminal His6 tag removed by TEV, construct 26672 Da
T2 sequence (P0C024 14-235): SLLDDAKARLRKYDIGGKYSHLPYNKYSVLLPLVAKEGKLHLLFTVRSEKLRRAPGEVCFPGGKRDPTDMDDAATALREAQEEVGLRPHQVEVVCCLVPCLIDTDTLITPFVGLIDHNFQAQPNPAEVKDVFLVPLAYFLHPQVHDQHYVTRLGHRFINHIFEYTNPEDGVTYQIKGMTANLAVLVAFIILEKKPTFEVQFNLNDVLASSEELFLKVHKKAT

OTUB2 (OTUB2A) = target: T3, OTUB2 (OTUB2A) (Homo sapiens, UniProt Q96DC9); parameters: Intact protein LC/MS covalent labelling, fragments in pools of five, 200 uM each, 4 °C; conditions: 24 h, 4 °C, pool of five; 200 µM; covalent
T3 construct: full length residues 1-234, E. coli BL21(DE3)-R3, His tag removed by TEV, construct 27312 Da
T3 sequence (Q96DC9 1-234): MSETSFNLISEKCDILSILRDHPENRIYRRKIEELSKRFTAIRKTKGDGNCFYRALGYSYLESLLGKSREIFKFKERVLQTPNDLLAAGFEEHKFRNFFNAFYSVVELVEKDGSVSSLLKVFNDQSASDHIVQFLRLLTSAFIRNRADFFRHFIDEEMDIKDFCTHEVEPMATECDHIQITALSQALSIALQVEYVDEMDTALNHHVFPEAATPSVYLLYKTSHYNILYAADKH

PCAF = target: T4, PCAF (Homo sapiens, UniProt Q92831); parameters: Intact protein LC/MS covalent labelling, fragments in pools of five, 200 uM each, 4 °C; conditions: 24 h, 4 °C, pool of five; 200 µM; covalent
T4 construct: gene KAT2B
T4 sequence (Q92831 whole entry, the tested form may be a part): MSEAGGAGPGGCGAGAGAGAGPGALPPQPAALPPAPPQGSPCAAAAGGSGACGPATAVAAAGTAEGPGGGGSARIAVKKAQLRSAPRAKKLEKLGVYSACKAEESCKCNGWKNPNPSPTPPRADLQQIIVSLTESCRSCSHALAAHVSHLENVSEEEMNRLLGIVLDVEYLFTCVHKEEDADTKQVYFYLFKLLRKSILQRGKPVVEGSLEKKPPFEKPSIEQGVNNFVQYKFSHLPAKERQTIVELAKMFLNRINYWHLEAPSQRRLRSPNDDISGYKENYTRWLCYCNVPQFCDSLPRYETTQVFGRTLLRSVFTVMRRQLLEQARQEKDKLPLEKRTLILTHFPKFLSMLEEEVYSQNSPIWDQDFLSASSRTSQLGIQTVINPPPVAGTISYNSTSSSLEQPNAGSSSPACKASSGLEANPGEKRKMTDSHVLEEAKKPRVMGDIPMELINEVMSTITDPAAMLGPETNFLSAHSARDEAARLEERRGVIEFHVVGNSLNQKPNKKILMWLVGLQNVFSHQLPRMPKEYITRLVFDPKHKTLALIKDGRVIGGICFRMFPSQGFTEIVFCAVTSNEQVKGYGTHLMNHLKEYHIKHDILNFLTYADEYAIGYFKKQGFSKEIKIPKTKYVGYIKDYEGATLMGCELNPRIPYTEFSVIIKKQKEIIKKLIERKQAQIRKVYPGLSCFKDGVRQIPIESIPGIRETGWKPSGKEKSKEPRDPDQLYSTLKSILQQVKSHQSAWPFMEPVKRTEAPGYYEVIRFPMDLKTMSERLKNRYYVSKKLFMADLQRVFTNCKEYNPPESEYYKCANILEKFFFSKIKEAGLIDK

Cc1ccc(C)c(S(=O)(=O)N2CCN(C(=O)CCl)CC2)c1 [PCM-0102353]
viability at 48 h, 10 µM (in vitro [1]): 2.1% | viability at 48 h, 10 µM (in vitro [2]): 37.7% | viability at 48 h, 10 µM (in vitro [3]): 3.2% | BSA (BSA): 0 | NUDT7 (NUDT7): 0.19 | OTUB2 (OTUB2 (OTUB2A)): 0.06 | PCAF (PCAF): 0

O=C(CCl)N1CCN(c2ccc(Cl)cc2[N+](=O)[O-])CC1 [PCM-0102125]
viability at 48 h, 10 µM (in vitro [1]): 2.3% | viability at 48 h, 10 µM (in vitro [2]): 8.1% | viability at 48 h, 10 µM (in vitro [3]): 1.4% | BSA (BSA): 0 | NUDT7 (NUDT7): 0.29 | OTUB2 (OTUB2 (OTUB2A)): 0 | PCAF (PCAF): 0

CC1CCCN(C(=O)C2CCN(C(=O)CCl)CC2)C1 (stereo not drawn) [PCM-0102933]
viability at 48 h, 10 µM (in vitro [1]): 92.6% | viability at 48 h, 10 µM (in vitro [2]): 80.1% | viability at 48 h, 10 µM (in vitro [3]): 57.9% | BSA (BSA): 0 | NUDT7 (NUDT7): 0 | OTUB2 (OTUB2 (OTUB2A)): 0 | PCAF (PCAF): 0

O=C(CCl)N1CCOC(c2ccc(F)cc2)C1 (stereo not drawn) [PCM-0102615]
viability at 48 h, 10 µM (in vitro [1]): 2% | viability at 48 h, 10 µM (in vitro [2]): 12.6% | viability at 48 h, 10 µM (in vitro [3]): 4.8% | BSA (BSA): 0 | NUDT7 (NUDT7): 0 | OTUB2 (OTUB2 (OTUB2A)): 0 | PCAF (PCAF): 0

Cc1cc(NC(=O)CCl)no1 [PCM-0102500]
viability at 48 h, 10 µM (in vitro [1]): 66.8% | viability at 48 h, 10 µM (in vitro [2]): 73.3% | viability at 48 h, 10 µM (in vitro [3]): 60.3% | BSA (BSA): 0 | NUDT7 (NUDT7): 0 | OTUB2 (OTUB2 (OTUB2A)): 0.35 | PCAF (PCAF): 0

O=C(CCl)N1CCCC(C(F)(F)F)C1 (stereo not drawn) [PCM-0102676]
viability at 48 h, 10 µM (in vitro [1]): 44.7% | viability at 48 h, 10 µM (in vitro [2]): 88.5% | viability at 48 h, 10 µM (in vitro [3]): 54.4% | BSA (BSA): 0 | NUDT7 (NUDT7): 0.14 | OTUB2 (OTUB2 (OTUB2A)): 0 | PCAF (PCAF): 0

C=CC(=O)N1CCCC(S(=O)(=O)N2CCOCC2)C1 (stereo not drawn) [PCM-0102849]
viability at 48 h, 10 µM (in vitro [1]): 107% | viability at 48 h, 10 µM (in vitro [2]): 97.2% | viability at 48 h, 10 µM (in vitro [3]): 97.9% | BSA (BSA): 0 | NUDT7 (NUDT7): 0 | OTUB2 (OTUB2 (OTUB2A)): 0 | PCAF (PCAF): 0

C=CC(=O)N1CCc2c([nH]c3ccccc23)C1 [PCM-0102650]
viability at 48 h, 10 µM (in vitro [1]): 100% | viability at 48 h, 10 µM (in vitro [2]): 107% | viability at 48 h, 10 µM (in vitro [3]): 85.6% | BSA (BSA): 0 | NUDT7 (NUDT7): 0.14 | OTUB2 (OTUB2 (OTUB2A)): 0 | PCAF (PCAF): 0

COC(=O)c1ccccc1N(C)C(=O)CCl [PCM-0102589]
viability at 48 h, 10 µM (in vitro [1]): 92.1% | viability at 48 h, 10 µM (in vitro [2]): 89.7% | viability at 48 h, 10 µM (in vitro [3]): 58.9% | BSA (BSA): 0 | NUDT7 (NUDT7): 0.15 | OTUB2 (OTUB2 (OTUB2A)): 0 | PCAF (PCAF): 0

O=C(CCl)N1CCC(c2nc3ccccc3s2)CC1 [PCM-0103068]
viability at 48 h, 10 µM (in vitro [1]): 17.4% | viability at 48 h, 10 µM (in vitro [2]): 46% | viability at 48 h, 10 µM (in vitro [3]): 15.4% | BSA (BSA): 0 | NUDT7 (NUDT7): 0.65 | OTUB2 (OTUB2 (OTUB2A)): 0 | PCAF (PCAF): 0

O=C(CCl)N1N=C(c2ccco2)CC1c1ccsc1 (stereo not drawn) [PCM-0102659]
viability at 48 h, 10 µM (in vitro [1]): 15.3% | viability at 48 h, 10 µM (in vitro [2]): 15.6% | viability at 48 h, 10 µM (in vitro [3]): 3.5% | BSA (BSA): 0 | NUDT7 (NUDT7): 0.39 | OTUB2 (OTUB2 (OTUB2A)): 0 | PCAF (PCAF): 0

Cc1nc(-c2ccc(C)c(NC(=O)CCl)c2)n[nH]1 [PCM-0103052]
viability at 48 h, 10 µM (in vitro [1]): 57% | viability at 48 h, 10 µM (in vitro [2]): 43.4% | viability at 48 h, 10 µM (in vitro [3]): 39.1% | BSA (BSA): 0 | NUDT7 (NUDT7): 0.12 | OTUB2 (OTUB2 (OTUB2A)): 0.09 | PCAF (PCAF): 0

CN(Cc1cccc(C(F)(F)F)c1)C(=O)CCl [PCM-0102987]
viability at 48 h, 10 µM (in vitro [1]): 5.3% | viability at 48 h, 10 µM (in vitro [2]): 45.2% | viability at 48 h, 10 µM (in vitro [3]): 6.7% | BSA (BSA): 0 | NUDT7 (NUDT7): 0.09 | OTUB2 (OTUB2 (OTUB2A)): 0 | PCAF (PCAF): 0

Cc1nc(CN2CCN(C(=O)CCl)CC2)cs1 [PCM-0102630]
viability at 48 h, 10 µM (in vitro [1]): 92% | viability at 48 h, 10 µM (in vitro [2]): 79.3% | viability at 48 h, 10 µM (in vitro [3]): 67.4% | BSA (BSA): 0 | NUDT7 (NUDT7): 0 | OTUB2 (OTUB2 (OTUB2A)): 0 | PCAF (PCAF): 0

C=CC(=O)N1Cc2ccccc2CC1c1nnc(CC)o1 (stereo not drawn) [PCM-0103005]
viability at 48 h, 10 µM (in vitro [1]): 96.8% | viability at 48 h, 10 µM (in vitro [2]): 79.4% | viability at 48 h, 10 µM (in vitro [3]): 93.2% | BSA (BSA): 0 | NUDT7 (NUDT7): 0 | OTUB2 (OTUB2 (OTUB2A)): 0 | PCAF (PCAF): 0

O=C(CCl)Nc1ccc2c(c1)OCCCO2 [PCM-0102409]
viability at 48 h, 10 µM (in vitro [1]): 29.6% | viability at 48 h, 10 µM (in vitro [2]): 51.7% | viability at 48 h, 10 µM (in vitro [3]): 6.9% | BSA (BSA): 0 | NUDT7 (NUDT7): 0.1 | OTUB2 (OTUB2 (OTUB2A)): 0.23 | PCAF (PCAF): 0

O=C(CCl)N1CCCc2cccc(F)c21 [PCM-0103071]
viability at 48 h, 10 µM (in vitro [1]): 62.4% | viability at 48 h, 10 µM (in vitro [2]): 65.9% | viability at 48 h, 10 µM (in vitro [3]): 25.1% | BSA (BSA): 0 | NUDT7 (NUDT7): 0.4 | OTUB2 (OTUB2 (OTUB2A)): 0 | PCAF (PCAF): 0

CN(C(=O)CCl)C1CCCc2ccccc21 (stereo not drawn) [PCM-0102703]
viability at 48 h, 10 µM (in vitro [1]): 6.6% | viability at 48 h, 10 µM (in vitro [2]): 25.8% | viability at 48 h, 10 µM (in vitro [3]): 5.8% | BSA (BSA): 0 | NUDT7 (NUDT7): 0.3 | OTUB2 (OTUB2 (OTUB2A)): 0 | PCAF (PCAF): 0

C=CC(=O)Nc1ccc(C)cn1 [PCM-0102627]
viability at 48 h, 10 µM (in vitro [1]): 96.7% | viability at 48 h, 10 µM (in vitro [2]): 84.1% | viability at 48 h, 10 µM (in vitro [3]): 78.8% | BSA (BSA): 0 | NUDT7 (NUDT7): 0 | OTUB2 (OTUB2 (OTUB2A)): 0 | PCAF (PCAF): 0

C=CC(=O)Nc1nc(-c2ccccc2C)cs1 [PCM-0102845]
viability at 48 h, 10 µM (in vitro [1]): 107% | viability at 48 h, 10 µM (in vitro [2]): 106% | viability at 48 h, 10 µM (in vitro [3]): 93.4% | BSA (BSA): 0 | NUDT7 (NUDT7): 0 | OTUB2 (OTUB2 (OTUB2A)): 0 | PCAF (PCAF): 0

C#Cc1cccc(NC(=O)CCl)c1 [PCM-0102735]
viability at 48 h, 10 µM (in vitro [1]): 90.9% | viability at 48 h, 10 µM (in vitro [2]): 85.7% | viability at 48 h, 10 µM (in vitro [3]): 87% | BSA (BSA): 0 | NUDT7 (NUDT7): 0 | OTUB2 (OTUB2 (OTUB2A)): 0.09 | PCAF (PCAF): 0

O=C(CCl)Nc1ccc([N+](=O)[O-])cc1Br [PCM-0102848]
viability at 48 h, 10 µM (in vitro [1]): 54.1% | viability at 48 h, 10 µM (in vitro [2]): 68.4% | viability at 48 h, 10 µM (in vitro [3]): 47% | BSA (BSA): 0 | NUDT7 (NUDT7): 0.24 | OTUB2 (OTUB2 (OTUB2A)): 0 | PCAF (PCAF): 0

O=C(NC1CCN(C(=O)CCl)CC1)c1ccccc1 [PCM-0102575]
viability at 48 h, 10 µM (in vitro [1]): 63.8% | viability at 48 h, 10 µM (in vitro [2]): 68.2% | viability at 48 h, 10 µM (in vitro [3]): 40.6% | BSA (BSA): 0 | NUDT7 (NUDT7): 0.09 | OTUB2 (OTUB2 (OTUB2A)): 0.09 | PCAF (PCAF): 0

O=C(CCl)N1CCc2cc(S(=O)(=O)N3CCCCC3)ccc21 [PCM-0102705]
viability at 48 h, 10 µM (in vitro [1]): 4.2% | viability at 48 h, 10 µM (in vitro [2]): 28.8% | viability at 48 h, 10 µM (in vitro [3]): 51.1% | BSA (BSA): 0 | NUDT7 (NUDT7): 0 | OTUB2 (OTUB2 (OTUB2A)): 0 | PCAF (PCAF): 0
